According to the supplement of paper PMC11061612:

How the values were obtained:
Test in all cases: combination Emax (second highest fraction inhibited in the dose matrix, 72 h); higher = more inhibition; extreme values may be limits of the assay
[1] = test system: PC-14 (Lung Adenocarcinoma)
Procedure, shortened: (§1)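 Bliss excess equals the observed combination effect minus the expected value EA + EB − EA·EB, where EA and EB are the effects of each agent alone. Combination Emax is the second-highest inhibition within the matrix. Inhibition was scaled from CellTiter-Glo 2.0 luminescence, with 0 set by vehicle wells and 1 by blank wells, after 72 hours of two-drug dosing of cells plated in 1536-well plates.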

[2] = test system: NKM-1 (Acute Myeloid Leukemia)
Procedure, shortened: as §1

[3] = test system: OCI-AML5 (Acute Myeloid Leukemia)
Procedure, shortened: as §1

[4] = test system: AsPC-1 (Pancreatic Carcinoma)
Procedure, shortened: as §1

[5] = test system: PANC-02-03 (Pancreatic Carcinoma)
Procedure, shortened: as §1

[6] = test system: HuO-3N1 (Osteosarcoma)
Procedure, shortened: as §1

[7] = test system: RL95-2 (Endometrial Carcinoma)
Procedure, shortened: as §1

[8] = test system: NCI-H196 (Small Cell Lung Carcinoma)
Procedure, shortened: as §1

[9] = test system: KYSE-70 (Esophageal Squamous Cell Carcinoma)
Procedure, shortened: as §1

[10] = test system: Caov-3 (Ovarian Carcinoma)
Procedure, shortened: as §1

[11] = test system: JHH-1 (Hepatocellular Carcinoma)
Procedure, shortened: as §1

[12] = test system: NCI-H810 (Non-Small Cell Lung Carcinoma)
Procedure, shortened: as §1

[13] = test system: RMG-I (Ovarian Carcinoma)
Procedure, shortened: as §1

[14] = test system: 786-0 (Kidney Carcinoma)
Procedure, shortened: as §1

[15] = test system: RERF-LC-KJ (Lung Adenocarcinoma)
Procedure, shortened: as §1

[16] = test system: HTC-C3 (Thyroid Gland Carcinoma)
Procedure, shortened: as §1

[17] = test system: SK-MM-2 (Plasma Cell Myeloma)
Procedure, shortened: as §1

[18] = test system: LOUCY (T-Lymphoblastic Leukemia)
Procedure, shortened: as §1

[19] = test system: OV-90 (Ovarian Carcinoma)
Procedure, shortened: as §1

[20] = test system: OVTOKO (Ovarian Carcinoma)
Procedure, shortened: as §1

Structure (SMILES)	combination Emax [1]	combination Emax [2]	combination Emax [3]	combination Emax [4]	combination Emax [5]	combination Emax [6]	combination Emax [7]	combination Emax [8]	combination Emax [9]	combination Emax [10]	combination Emax [11]	combination Emax [12]	combination Emax [13]	combination Emax [14]	combination Emax [15]	combination Emax [16]	combination Emax [17]	combination Emax [18]	combination Emax [19]	combination Emax [20]
Cc1c2c(nn1C)CSCc1cc(n(C)n1)CSc1cc(c3ccccc3c1)OCCCc1c(C(=O)O)n(C)c3c-2c(Cl)ccc13 [AZD5991] + CCN(CCO)CCCOc1ccc2c(Nc3cc(CC(=O)Nc4cccc(F)c4)[nH]n3)ncnc2c1 [AZD2811] (first compound max 1 µM, 7x7, partner max 1 µM)	0.371	0.969	1	0.243	0.269	0.875	1	0.222	0.315	0.896	0.517	0.981	0.303	0.35	0.584	0.235	0.487	0.983	0.262	0.241
Cc1c2c(nn1C)CSCc1cc(n(C)n1)CSc1cc(c3ccccc3c1)OCCCc1c(C(=O)O)n(C)c3c-2c(Cl)ccc13 [AZD5991] + CN(C)CCCOc1ccc(-c2ccc3ncc4c(c3c2)n(C2CCOCC2)c(=O)n4C)cn1 [AZD0156] (first compound max 1 µM, 7x7, partner max 1 µM)	0.236	0.967	1	0.24	0.203	0.844	0.977	0.205	0.156	0.39	0.48	0.474	0.293	0.251	0.589	0.179	0.355	0.638	0.209	0.319
Cc1c2c(nn1C)CSCc1cc(n(C)n1)CSc1cc(c3ccccc3c1)OCCCc1c(C(=O)O)n(C)c3c-2c(Cl)ccc13 [AZD5991] + C[C@@H]1COCCN1C2=NC(=NC(=C2)C3(CC3)[S@](=N)(=O)C)C4=C5C=CNC5=NC=C4 [AZD6738] (first compound max 1 µM, 7x7, partner max 10 µM)	0.855	0.995	1	0.292	0.528	0.894	1	0.367	0.379	0.763	0.686	0.904	0.544	0.748	0.465	0.686	0.637	0.993	0.51	0.452
Cc1c2c(nn1C)CSCc1cc(n(C)n1)CSc1cc(c3ccccc3c1)OCCCc1c(C(=O)O)n(C)c3c-2c(Cl)ccc13 [AZD5991] + C[C@@H](Nc1cc(F)cc(F)c1)c1cc(C(=O)N(C)C)cc2c(=O)cc(N3CCOCC3)oc12 [AZD8186] (first compound max 1 µM, 7x7, partner max 3 µM)	0.255	1	1	0.235	0.232	0.893	0.95	0.282	0.173	0.374	0.462	0.3	0.426	0.374	0.527	0.277	0.271	0.47	0.214	0.605
Cc1c2c(nn1C)CSCc1cc(n(C)n1)CSc1cc(c3ccccc3c1)OCCCc1c(C(=O)O)n(C)c3c-2c(Cl)ccc13 [AZD5991] + Cc1cc2ncnn2cc1Nc1ncc2c(n1)n(C1CCOCC1)c(=O)n2C [AZD7648] (first compound max 1 µM, 7x7, partner max 10 µM)	0.27	0.984	1	0.246	0.183	0.85	0.999	0.219	0.159	0.388	0.35	0.514	0.344	0.251	0.48	0.245	0.375	0.82	0.257	0.41
C[C@@H]1COCCN1c1cc(C2([S@](C)(=N)=O)CC2)nc(-c2ccnc3[nH]ccc23)n1 [AZD6738] + O=C(c1cc(Cc2n[nH]c(=O)c3ccccc23)ccc1F)N1CCN(C(=O)C2CC2)CC1 [Olaparib] (first compound max 10 µM, 7x7, partner max 10 µM)	0.816	0.902	0.907	0.308	0.692	0.339	0.641	0.347	0.45	0.699	0.458	0.766	0.414	0.679	0.326	0.83	0.572	0.974	0.537	0.398
